The supplement of paper PMC10627819
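Note: first quartile when negative (synergy) and third quartile when positive (antagonism).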

These compounds were tested on S. aureus DSM 20231 (assay: Bliss interaction score (quartile over a dose matrix) (fitness difference); higher = more antagonism (negative = synergy)).
Procedure, shortened: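 Fitness was OD595 at entry into stationary phase divided by the plate's robust no-drug mean and capped at 1; single-drug fitness was inferred from combination data. The Bliss score is observed minus expected (product) fitness, summarised by quartiles over technical, biological and donor/recipient replicates.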
In the case of `CO/N=C(\C(=O)N[C@@H]1C(=O)N2C(C(=O)O)=C(COC(C)=O)CS[C@H]12)c1csc(N)n1` [Cefotaxime] + O=c1[nH]cc(F)c(=O)[nH]1 [Fluorouracil], the Bliss interaction score is reported as -0.114. Work on `CC(C)c1c(C(=O)Nc2ccccc2)c(-c2ccccc2)c(-c2ccc(F)cc2)n1CC[C@@H](O)C[C@@H](O)CC(=O)O` [Atorvastatin] + O=C(O[C@@H]1Cc2c(O)cc(O)cc2O[C@@H]1c1cc(O)c(O)c(O)c1)c1cc(O)c(O)c(O)c1 [EGCG] yielded a Bliss interaction score of -0.118. For `CN(C)[C@@H]1C(O)=C(C(N)=O)C(=O)[C@@]2(O)C(O)=C3C(=O)c4c(O)ccc(Cl)c4[C@@](C)(O)[C@H]3C[C@@H]12` [Clortetracycline] + CC(=O)Oc1cccc2c1C(=O)c1c(OC(C)=O)cc(C(=O)O)cc1C2=O [Diacerein], the Bliss interaction score was -0.344. With `Cn1c(=O)c2c(ncn2C)n(C)c1=O` [Caffeine] + O=C(N[C@H](CO)[C@H](O)c1ccc([N+](=O)[O-])cc1)C(Cl)Cl [Chloramphenicol] the Bliss interaction score was -0.3. `Cc1cc(C(C)(C)C)c(O)c(C)c1CC1=NCCN1` [Oxymetazoline] + COc1cc(Cc2cnc(N)nc2N)cc(OC)c1OC [Trimethoprim] was tested, and the Bliss interaction score was 0.209. For `CC(C)c1c(C(=O)Nc2ccccc2)c(-c2ccccc2)c(-c2ccc(F)cc2)n1CC[C@@H](O)C[C@@H](O)CC(=O)O` [Atorvastatin] + CO[C@@]12[C@H](COC(N)=O)C3=C(C(=O)C(C)=C(N)C3=O)N1C[C@@H]1N[C@@H]12 [MitomycinC], the Bliss interaction score was 0.187. For `Cn1c(=O)c2c(ncn2C)n(C)c1=O` [Caffeine] + CCC[C@@H]1C[C@@H](C(=O)N[C@@H]([C@H]2O[C@H](SC)[C@H](O)[C@@H](O)[C@H]2O)[C@H](C)Cl)N(C)C1 [Clindamycin], the Bliss interaction score was -0.251. `CN(C)[C@@H]1C(O)=C(C(N)=O)C(=O)[C@@]2(O)C(O)=C3C(=O)c4c(O)ccc(Cl)c4[C@@](C)(O)[C@H]3C[C@@H]12` [Clortetracycline] + CC(=O)S[C@@H]1CC2=CC(=O)CC[C@]2(C)[C@H]2CC[C@@]3(C)[C@@H](CC[C@@]34CCC(=O)O4)[C@H]12 [Spironolactone] was tested, and the Bliss interaction score was 0.196. Work on `CC(C)c1c(C(=O)Nc2ccccc2)c(-c2ccccc2)c(-c2ccc(F)cc2)n1CC[C@@H](O)C[C@@H](O)CC(=O)O` [Atorvastatin] + COc1cc(Cc2cnc(N)nc2N)cc(OC)c1OC [Trimethoprim] yielded a Bliss interaction score of 0.453. Compound `CN(C)[C@@H]1C(O)=C(C(N)=O)C(=O)[C@@]2(O)C(O)=C3C(=O)c4c(O)ccc(Cl)c4[C@@](C)(O)[C@H]3C[C@@H]12` [Clortetracycline] + OCc1cc(C(O)CNCCCCCCOCCCCc2ccccc2)ccc1O [Salmeterol] has a Bliss interaction score of -0.118. In the case of `CC(C)c1c(C(=O)Nc2ccccc2)c(-c2ccccc2)c(-c2ccc(F)cc2)n1CC[C@@H](O)C[C@@H](O)CC(=O)O` [Atorvastatin] + CO/N=C(\C(=O)N[C@@H]1C(=O)N2C(C(=O)O)=C(COC(C)=O)CS[C@H]12)c1csc(N)n1 [Cefotaxime], the Bliss interaction score is reported as -0.17. `COCCOC(=O)C1=C(C)NC(C)=C(C(=O)OC/C=C/c2ccccc2)C1c1cccc([N+](=O)[O-])c1` (centres undefined) [Cilnidipine] + CC1(C)S[C@@H]2[C@H](NC(=O)Cc3ccccc3)C(=O)N2[C@H]1C(=O)O [PenicillinG] showed a Bliss interaction score of -0.229. Compound `O=C(O)c1cc(-c2ccc(F)cc2F)ccc1O` [Diflunisal] + CC(=O)O[C@H]1C[C@@]2(C)[C@@H](C[C@@H](O)[C@H]3[C@@]4(C)CC[C@@H](O)[C@@H](C)[C@@H]4CC[C@@]32C)/C1=C(\CCC=C(C)C)C(=O)O [Fusidic acid] has a Bliss interaction score of 0.199. `Cc1ncc([N+](=O)[O-])n1CCO` [Metronidazole] + CCCSc1nc(N[C@@H]2C[C@H]2c2ccc(F)c(F)c2)c2nnn([C@@H]3C[C@H](OCCO)[C@@H](O)[C@H]3O)c2n1 [Ticagrelor] gave a Bliss interaction score of 0.152. Work on `COCCOC(=O)C1=C(C)NC(C)=C(C(=O)OC/C=C/c2ccccc2)C1c1cccc([N+](=O)[O-])c1` (centres undefined) [Cilnidipine] + CO[C@@]12[C@H](COC(N)=O)C3=C(C(=O)C(C)=C(N)C3=O)N1C[C@@H]1N[C@@H]12 [MitomycinC] yielded a Bliss interaction score of -0.236. For `CN(C)[C@@H]1C(O)=C(C(N)=O)C(=O)[C@@]2(O)C(O)=C3C(=O)c4c(O)ccc(Cl)c4[C@@](C)(O)[C@H]3C[C@@H]12` [Clortetracycline] + C[C@]12CC[C@@H]3c4ccc(O)cc4CC[C@H]3[C@@H]1CC[C@@H]2O [Estradiol], the Bliss interaction score was 0.237. `CN(C)[C@@H]1C(O)=C(C(N)=O)C(=O)[C@@]2(O)C(O)=C3C(=O)c4c(O)ccc(Cl)c4[C@@](C)(O)[C@H]3C[C@@H]12` [Clortetracycline] + O=C(O)c1cc(-c2ccc(F)cc2F)ccc1O [Diflunisal] gave a Bliss interaction score of 0.232. In the case of `O=C(O)c1cn(C2CC2)c2cc(N3CCNCC3)c(F)cc2c1=O` [Ciprofloxacin] + CCCSc1nc(N[C@@H]2C[C@H]2c2ccc(F)c(F)c2)c2nnn([C@@H]3C[C@H](OCCO)[C@@H](O)[C@H]3O)c2n1 [Ticagrelor], the Bliss interaction score is reported as -0.375. In the case of `CC(=O)Oc1ccccc1C(=O)O` [Acetylsalicylicacid] + C[C@]12CC[C@@H]3c4ccc(O)cc4CC[C@H]3[C@@H]1CC[C@@H]2O [Estradiol], the Bliss interaction score is reported as 0.162. Compound `COCCOC(=O)C1=C(C)NC(C)=C(C(=O)OC/C=C/c2ccccc2)C1c1cccc([N+](=O)[O-])c1` (centres undefined) [Cilnidipine] + Clc1ccc(COC(Cn2ccnc2)c2ccc(Cl)cc2Cl)c(Cl)c1 [Miconazole] has a Bliss interaction score of 0.105. Work on `Cn1c(=O)c2c(ncn2C)n(C)c1=O` [Caffeine] + CC[C@H]1OC(=O)[C@H](C)C(=O)[C@H](C)[C@@H](O[C@@H]2O[C@H](C)C[C@H](N(C)C)[C@H]2O)[C@](C)(OC)C[C@@H](C)C(=O)[C@H](C)[C@H]2N(CCCCn3cnc(-c4cccnc4)c3)C(=O)O[C@]12C [Telithromycin] yielded a Bliss interaction score of -0.372. In the case of `CC(=O)Oc1ccccc1C(=O)O` [Acetylsalicylicacid] + CCCCc1nc(Cl)c(CO)n1Cc1ccc(-c2ccccc2-c2nnn[nH]2)cc1 [Losartan], the Bliss interaction score is reported as 0.178. Work on `COc1cccc2c1C(=O)c1c(O)c3c(c(O)c1C2=O)C[C@@](O)(C(=O)CO)C[C@@H]3O[C@H]1C[C@H](N)[C@H](O)[C@H](C)O1` [Doxorubicin] + CCCSc1nc(N[C@@H]2C[C@H]2c2ccc(F)c(F)c2)c2nnn([C@@H]3C[C@H](OCCO)[C@@H](O)[C@H]3O)c2n1 [Ticagrelor] yielded a Bliss interaction score of -0.298. With `CO/N=C(\C(=O)N[C@@H]1C(=O)N2C(C(=O)O)=C(COC(N)=O)CS[C@H]12)c1ccco1` [Cefuroxime] + CCCSc1nc(N[C@@H]2C[C@H]2c2ccc(F)c(F)c2)c2nnn([C@@H]3C[C@H](OCCO)[C@@H](O)[C@H]3O)c2n1 [Ticagrelor] the Bliss interaction score was 0.137. `CC(=O)Oc1ccccc1C(=O)O` [Acetylsalicylicacid] + Cc1c(Cl)cccc1Nc1ccccc1C(=O)O [Tolfenamic] was tested, and the Bliss interaction score was -0.263. Compound `O=C(O)c1cn(C2CC2)c2cc(N3CCNCC3)c(F)cc2c1=O` [Ciprofloxacin] + COc1cc2ncnc(Nc3ccc(F)c(Cl)c3)c2cc1OCCCN1CCOCC1 [Gefitinib] has a Bliss interaction score of -0.336. `COCCOC(=O)C1=C(C)NC(C)=C(C(=O)OC/C=C/c2ccccc2)C1c1cccc([N+](=O)[O-])c1` (centres undefined) [Cilnidipine] + CCC[C@@H]1C[C@@H](C(=O)N[C@@H]([C@H]2O[C@H](SC)[C@H](O)[C@@H](O)[C@H]2O)[C@H](C)Cl)N(C)C1 [Clindamycin] showed a Bliss interaction score of -0.221. `COCCOC(=O)C1=C(C)NC(C)=C(C(=O)OC/C=C/c2ccccc2)C1c1cccc([N+](=O)[O-])c1` (centres undefined) [Cilnidipine] + C[C@H]1c2cccc(O)c2C(=O)C2=C(O)[C@]3(O)C(=O)C(C(N)=O)=C(O)[C@@H](N(C)C)[C@@H]3[C@@H](O)[C@@H]21 [Doxycycline] gave a Bliss interaction score of -0.272. Compound `CC(=O)Oc1ccccc1C(=O)O` [Acetylsalicylicacid] + C=C1/C(=C\C=C2/CCC[C@]3(C)[C@@H]([C@H](C)CCCC(C)C)CC[C@@H]23)C[C@@H](O)C[C@@H]1O [Alfacalcidol] has a Bliss interaction score of -0.294.
